Laboratory results from PMC4976878 (PLoS ONE, 2016).
pIC50: −log10 of the molar value.

Assays:
[1] = target: T1, BmMetRS (Brucella melitensis methionyl-tRNA-synthetase) (Brucella abortus, UniProt Q2YQ76); experiment: biochemical
T1 construct: gene metG

[2] = target: T2, human mitochondrial MetRS (Homo sapiens, UniProt Q96GW9); experiment: enzyme inhibition, assay not given; type: biochemical
T2 construct: gene MARS2
T2 sequence (Q96GW9 30-593): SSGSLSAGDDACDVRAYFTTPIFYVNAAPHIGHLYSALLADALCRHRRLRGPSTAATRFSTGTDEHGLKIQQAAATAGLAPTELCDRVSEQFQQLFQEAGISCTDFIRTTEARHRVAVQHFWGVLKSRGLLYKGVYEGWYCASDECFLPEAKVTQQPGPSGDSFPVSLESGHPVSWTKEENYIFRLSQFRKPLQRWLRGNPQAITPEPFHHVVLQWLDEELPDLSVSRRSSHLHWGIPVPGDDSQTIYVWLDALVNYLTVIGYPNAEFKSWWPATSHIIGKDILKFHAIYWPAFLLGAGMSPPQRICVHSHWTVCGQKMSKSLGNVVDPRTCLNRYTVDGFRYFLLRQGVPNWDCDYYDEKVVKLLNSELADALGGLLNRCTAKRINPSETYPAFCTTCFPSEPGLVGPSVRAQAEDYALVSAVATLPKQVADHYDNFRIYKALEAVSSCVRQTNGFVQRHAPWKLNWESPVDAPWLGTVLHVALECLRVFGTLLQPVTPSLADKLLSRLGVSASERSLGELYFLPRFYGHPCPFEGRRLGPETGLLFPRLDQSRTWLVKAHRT

T1 sequence (Q2YQ76 1-515 limits assumed): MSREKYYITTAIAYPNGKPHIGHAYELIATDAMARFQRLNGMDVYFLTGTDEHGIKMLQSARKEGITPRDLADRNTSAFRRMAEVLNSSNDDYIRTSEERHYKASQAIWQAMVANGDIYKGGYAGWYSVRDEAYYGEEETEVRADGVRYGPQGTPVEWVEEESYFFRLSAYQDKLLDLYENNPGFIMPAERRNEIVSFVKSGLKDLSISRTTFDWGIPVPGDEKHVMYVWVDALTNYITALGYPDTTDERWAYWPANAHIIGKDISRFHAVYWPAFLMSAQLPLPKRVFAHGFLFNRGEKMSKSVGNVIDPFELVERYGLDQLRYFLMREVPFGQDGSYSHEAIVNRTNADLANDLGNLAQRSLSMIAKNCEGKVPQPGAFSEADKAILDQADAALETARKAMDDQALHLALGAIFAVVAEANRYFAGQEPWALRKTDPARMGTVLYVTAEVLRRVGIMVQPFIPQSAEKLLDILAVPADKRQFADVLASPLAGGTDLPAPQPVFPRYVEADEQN

Row | Compound | pIC50 [1] | IC50 [2]
1 | O=c1cc(NCCCNCc2cc(Cl)cc(Cl)c2)[nH]c2ccccc12 [compound 1312, 1312] | 8.22 | the IC50 values from human mitochondrial MetRS is very similar to that of BmMetRS
2 | COc1cc(Cl)cc(CNCCCNC(=O)Nc2ccccc2)c1 [compound 1415, 1415] | 5.78 | The characteristics of each inhibitor experimentally measured against human mitochondria MetRS
3 | O=C(NCCCNCc1cc(Cl)cc(Cl)c1)Nc1ccsc1 [compound 1433, 1433] | 6.57 | The characteristics of each inhibitor experimentally measured against human mitochondria MetRS
